{
  "source": "paper PMC2761990",
  "about": "(Molecular cancer therapeutics, 2009)",
  "key": {"U87 cells [1]": {"test_system": "U87 cells", "assay": "Radiosurvival, Trypan blue/FACS assay, U87", "type": "cell-based, human", "conditions": "U87, 3 μM, 4 Gy, alone"}, "U1242 cells [2]": {"test_system": "U1242 cells", "assay": "Radiosurvival, Trypan blue/FACS assay, U1242", "type": "cell-based, human"}, "PI3K (p110β/p85α)": {"target": "PI3K (p110β/p85α) (Homo sapiens, UniProt P42338)", "sequence (P42338 whole entry)": "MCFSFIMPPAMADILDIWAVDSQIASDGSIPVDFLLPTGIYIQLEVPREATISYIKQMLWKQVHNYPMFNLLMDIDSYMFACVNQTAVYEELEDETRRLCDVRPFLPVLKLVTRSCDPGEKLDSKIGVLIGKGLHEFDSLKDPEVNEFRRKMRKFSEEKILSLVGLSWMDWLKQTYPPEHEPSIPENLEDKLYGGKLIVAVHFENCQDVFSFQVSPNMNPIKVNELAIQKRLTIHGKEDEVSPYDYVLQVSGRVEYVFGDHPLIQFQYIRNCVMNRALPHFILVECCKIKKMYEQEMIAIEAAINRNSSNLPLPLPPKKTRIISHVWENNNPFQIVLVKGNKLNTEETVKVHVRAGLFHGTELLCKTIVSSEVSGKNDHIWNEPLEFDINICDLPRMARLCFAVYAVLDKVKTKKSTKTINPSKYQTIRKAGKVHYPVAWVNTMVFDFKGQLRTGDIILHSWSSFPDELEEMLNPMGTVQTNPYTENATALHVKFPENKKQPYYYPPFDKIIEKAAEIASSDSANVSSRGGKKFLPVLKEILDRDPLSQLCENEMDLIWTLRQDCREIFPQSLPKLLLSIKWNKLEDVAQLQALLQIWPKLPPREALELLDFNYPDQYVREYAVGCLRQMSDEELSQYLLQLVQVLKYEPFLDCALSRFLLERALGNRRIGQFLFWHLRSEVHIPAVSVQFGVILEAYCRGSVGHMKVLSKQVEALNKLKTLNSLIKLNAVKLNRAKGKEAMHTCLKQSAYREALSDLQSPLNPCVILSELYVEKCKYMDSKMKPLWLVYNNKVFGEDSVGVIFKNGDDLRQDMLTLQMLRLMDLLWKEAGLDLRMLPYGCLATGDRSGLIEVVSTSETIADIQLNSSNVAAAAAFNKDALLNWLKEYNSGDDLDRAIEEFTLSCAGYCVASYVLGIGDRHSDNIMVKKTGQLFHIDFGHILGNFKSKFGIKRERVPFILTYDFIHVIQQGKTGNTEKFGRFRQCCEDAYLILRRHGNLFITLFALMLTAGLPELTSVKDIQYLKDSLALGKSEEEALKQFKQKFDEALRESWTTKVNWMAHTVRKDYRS", "sequence (P27986 whole entry partner)": "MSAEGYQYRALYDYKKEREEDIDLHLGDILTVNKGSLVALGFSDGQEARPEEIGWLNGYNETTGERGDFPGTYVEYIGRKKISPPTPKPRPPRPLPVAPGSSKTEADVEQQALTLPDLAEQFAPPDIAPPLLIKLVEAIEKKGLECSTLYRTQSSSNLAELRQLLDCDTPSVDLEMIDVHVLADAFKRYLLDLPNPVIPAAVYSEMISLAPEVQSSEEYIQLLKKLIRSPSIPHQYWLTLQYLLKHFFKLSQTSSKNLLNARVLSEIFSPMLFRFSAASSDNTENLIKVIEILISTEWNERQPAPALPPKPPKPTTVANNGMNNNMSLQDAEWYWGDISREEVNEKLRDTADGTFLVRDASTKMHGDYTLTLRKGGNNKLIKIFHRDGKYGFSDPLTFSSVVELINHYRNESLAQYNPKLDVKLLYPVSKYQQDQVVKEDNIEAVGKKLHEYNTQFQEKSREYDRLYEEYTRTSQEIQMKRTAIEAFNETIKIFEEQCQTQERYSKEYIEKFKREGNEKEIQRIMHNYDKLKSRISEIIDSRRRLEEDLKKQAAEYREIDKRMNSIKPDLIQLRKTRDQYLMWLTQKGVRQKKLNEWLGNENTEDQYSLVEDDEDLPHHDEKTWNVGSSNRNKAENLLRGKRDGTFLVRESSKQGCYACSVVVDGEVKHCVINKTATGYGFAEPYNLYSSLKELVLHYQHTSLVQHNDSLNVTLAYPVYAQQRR", "assay": "PI3-Kinase HTRF assay", "type": "biochemical", "conditions": "read-out: PI3K (p110β/p85α) inhibited"}, "PI3K (p120γ)": {"target": "PI3K (p120γ) (Homo sapiens, UniProt P48736)", "sequence (P48736 whole entry)": "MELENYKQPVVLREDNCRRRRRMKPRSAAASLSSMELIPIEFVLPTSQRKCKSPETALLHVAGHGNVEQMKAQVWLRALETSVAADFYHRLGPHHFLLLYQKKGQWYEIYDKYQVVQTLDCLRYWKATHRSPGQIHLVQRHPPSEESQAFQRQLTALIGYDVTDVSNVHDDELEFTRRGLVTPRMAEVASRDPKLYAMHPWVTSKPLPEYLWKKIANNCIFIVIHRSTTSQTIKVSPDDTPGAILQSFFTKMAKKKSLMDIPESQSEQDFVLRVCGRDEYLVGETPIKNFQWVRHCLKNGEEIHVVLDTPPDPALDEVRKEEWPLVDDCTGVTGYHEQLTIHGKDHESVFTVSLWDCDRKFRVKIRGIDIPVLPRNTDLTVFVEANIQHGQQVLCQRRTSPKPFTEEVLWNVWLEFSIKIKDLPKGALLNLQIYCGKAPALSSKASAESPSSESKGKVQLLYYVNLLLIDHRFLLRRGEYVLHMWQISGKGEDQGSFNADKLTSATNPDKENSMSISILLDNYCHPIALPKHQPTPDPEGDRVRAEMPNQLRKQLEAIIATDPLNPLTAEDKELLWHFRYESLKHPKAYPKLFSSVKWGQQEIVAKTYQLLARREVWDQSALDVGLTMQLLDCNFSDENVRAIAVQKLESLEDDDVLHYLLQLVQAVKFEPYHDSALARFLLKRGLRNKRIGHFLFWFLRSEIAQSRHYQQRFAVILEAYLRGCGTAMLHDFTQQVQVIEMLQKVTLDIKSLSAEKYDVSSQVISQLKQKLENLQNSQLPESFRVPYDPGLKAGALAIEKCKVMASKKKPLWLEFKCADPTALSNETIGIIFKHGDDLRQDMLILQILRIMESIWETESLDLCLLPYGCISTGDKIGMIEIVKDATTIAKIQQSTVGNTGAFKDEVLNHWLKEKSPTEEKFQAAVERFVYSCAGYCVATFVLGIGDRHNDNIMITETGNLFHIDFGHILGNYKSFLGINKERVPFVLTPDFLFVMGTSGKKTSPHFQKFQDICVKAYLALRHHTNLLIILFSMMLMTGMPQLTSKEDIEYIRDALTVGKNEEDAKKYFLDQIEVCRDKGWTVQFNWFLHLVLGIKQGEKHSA", "assay": "PI3-Kinase HTRF assay", "type": "biochemical", "conditions": "read-out: PI3K (p120γ) inhibited"}, "PI3K (p110δ/p85α)": {"target": "PI3K (p110δ/p85α) (Homo sapiens, UniProt O00329)", "sequence (O00329 whole entry)": "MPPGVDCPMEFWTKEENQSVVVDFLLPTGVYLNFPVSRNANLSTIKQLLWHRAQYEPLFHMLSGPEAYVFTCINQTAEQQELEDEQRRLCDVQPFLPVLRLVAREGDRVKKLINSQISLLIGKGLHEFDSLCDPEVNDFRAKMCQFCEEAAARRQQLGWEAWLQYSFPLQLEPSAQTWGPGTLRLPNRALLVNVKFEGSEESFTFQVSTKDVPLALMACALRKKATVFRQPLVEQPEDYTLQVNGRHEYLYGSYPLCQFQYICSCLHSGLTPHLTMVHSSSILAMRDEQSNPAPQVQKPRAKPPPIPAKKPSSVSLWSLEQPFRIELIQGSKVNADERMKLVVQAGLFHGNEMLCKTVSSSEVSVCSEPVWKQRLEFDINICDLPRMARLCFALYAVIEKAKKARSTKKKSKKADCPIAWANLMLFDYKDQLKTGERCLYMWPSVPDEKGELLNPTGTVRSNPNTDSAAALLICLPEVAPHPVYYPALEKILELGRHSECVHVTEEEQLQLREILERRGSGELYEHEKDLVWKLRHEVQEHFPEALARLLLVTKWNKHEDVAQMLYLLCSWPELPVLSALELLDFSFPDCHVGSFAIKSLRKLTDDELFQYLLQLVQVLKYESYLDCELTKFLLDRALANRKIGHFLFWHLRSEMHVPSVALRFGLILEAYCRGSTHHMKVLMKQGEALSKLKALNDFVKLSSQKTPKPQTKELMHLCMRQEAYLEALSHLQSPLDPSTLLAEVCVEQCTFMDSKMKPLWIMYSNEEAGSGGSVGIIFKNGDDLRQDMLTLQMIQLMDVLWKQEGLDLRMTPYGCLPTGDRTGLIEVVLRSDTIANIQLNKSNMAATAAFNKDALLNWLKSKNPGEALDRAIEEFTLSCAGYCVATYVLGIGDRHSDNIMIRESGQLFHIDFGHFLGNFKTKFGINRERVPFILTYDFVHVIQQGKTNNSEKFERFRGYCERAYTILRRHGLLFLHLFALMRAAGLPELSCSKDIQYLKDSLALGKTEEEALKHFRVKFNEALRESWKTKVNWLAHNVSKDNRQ", "sequence (P27986 whole entry partner)": "as the sequence (P27986 whole entry partner) above", "assay": "PI3-Kinase HTRF assay", "type": "biochemical", "conditions": "read-out: PI3K (p110δ/p85α) inhibited"}, "mTOR": {"target": "mTOR (Homo sapiens, UniProt P42345)", "assay": "Millipore KinaseProfiler, mTOR", "type": "biochemical", "conditions": "1 μM"}, "[3]": {"test_system": "panel of 229 protein kinases", "assay": "Millipore KinaseProfiler panel", "type": "biochemical", "conditions": "1 μM; Table S1"}, "[4]": {"test_system": "p53 (S15) phosphorylation", "assay": "IR-induced p53", "type": "cell-based, human", "conditions": "for inhibition of IR-induced p53 (S15) phosphorylation: 1 h after IR"}, "γ-H2AX (S139)": {"test_system": "γ-H2AX (S139)", "assay": "IR-induced H2AX", "type": "cell-based, human", "conditions": "for γ-H2AX levels: 10 Gy"}, "[5]": {"test_system": "CHK2 phosphorylation (T68)", "assay": "IR-induced CHK2", "type": "cell-based, human", "conditions": "U1242, 3 μM, 5 Gy, up to 1 h after irradiation"}, "p53 phosphorylation": {"test_system": "p53 phosphorylation", "assay": "IR-induced p53 phosphorylation, western blot, U1242 cells", "type": "cell-based, human", "conditions": "U1242, 3 μM, 5 Gy"}, "γ-H2AX": {"test_system": "γ-H2AX", "assay": "IR-induced γ-H2AX, western blot, U1242 cells", "type": "cell-based, human", "conditions": "U1242, 3 μM, 5 Gy, especially at times ≤15 min"}, "[6]": {"test_system": "h-TERT-immortalized normal fibroblasts", "assay": "Radiosurvival, Trypan blue/FACS assay, normal fibroblasts", "type": "cell-based, human", "conditions": "10 μM, 7 days post-IR"}, "[7]": {"test_system": "h-TERT-immortalized A-T fibroblasts", "assay": "Radiosurvival, Trypan blue/FACS assay, A-T fibroblasts", "type": "cell-based, human", "conditions": "10 μM, 7 days post-IR"}, "[8]": {"test_system": "AKT (S473) phosphorylation", "assay": "AKT", "type": "cell-based, human"}, "[9]": {"test_system": "AKT (S473) phosphorylation", "assay": "AKT", "type": "cell-based, human", "conditions": "U1242, 3 μM, 5 Gy"}, "[10]": {"test_system": "AKT (S473) phosphorylation", "assay": "Insulin-stimulated AKT phosphorylation, normal fibroblasts", "type": "cell-based, human", "conditions": "NFs"}, "[11]": {"test_system": "AKT (S473) phosphorylation", "assay": "Insulin-stimulated AKT phosphorylation, A-T fibroblasts", "type": "cell-based, human", "conditions": "A-T cells, in response to insulin"}, "[12]": {"test_system": "(S136) BAD phosphorylation", "type": "cell-based", "conditions": "in vivo and in vitro (Fig. S1C, D)"}, "[13]": {"test_system": "(S9) GSK3β phosphorylation", "type": "cell-based", "conditions": "in vivo and in vitro (Fig. S1C, D)"}, "U87 cells [14]": {"test_system": "U87 cells", "assay": "Migration assay through 8 μm pore membranes, U87", "type": "cell-based", "conditions": "Homo sapiens, U-87 MG, 6 h, read-out: inhibition of migration"}, "U87 cells [15]": {"test_system": "U87 cells", "assay": "Invasion through matrigel, U87", "type": "cell-based", "conditions": "Homo sapiens, U-87 MG, 48 h, read-out: inhibition of invasion through matrigel"}, "U1242 cells [16]": {"test_system": "U1242 cells", "assay": "Scratch", "type": "cell-based, human"}, "U1242 cells [17]": {"test_system": "U1242 cells", "assay": "Invasion through matrigel inserts, U1242", "type": "cell-based", "conditions": "Homo sapiens, 48 h, read-out: inhibition of invasion"}, "U1242 cells [18]": {"test_system": "U1242 cells", "assay": "Cell growth, AlamarBlue, U1242", "type": "cell-based, human", "conditions": "U1242, 3 μM, over a 5 day period"}, "AKT T308 phosphorylation": {"test_system": "AKT T308 phosphorylation", "assay": "Radiation-induced AKT T308 phosphorylation", "type": "cell-based", "conditions": "Fig. S1B"}, "[19]": {"test_system": "panel of 60 protein kinases", "conditions": "cited from earlier work"}},
  "data": [
    {"smiles": "O=C(NOCC1CC1)c1ccc(F)c(F)c1Nc1ccc(I)cc1Cl", "note": "[PD184352, reference compound]", "values": [
      {"measurement": "effect on IR-induced killing", "setting": "U87 cells [1]", "result": "small but significant effect"},
      {"measurement": "effect on radiosurvival", "setting": "U1242 cells [2]; U1242, alone (Fig. S5)", "result": "slightly radioprotective"}
    ]},
    {"smiles": "C[C@@H]1CN(CC(=O)Nc2ccc3c(c2)Cc2cccc(-c4cc(=O)cc(N5CCOCC5)o4)c2S3)C[C@H](C)O1", "note": "[KU-60019, 2-((2R, 6S)-2,6-Dimethyl-morpholin-4-yl)-N-[5-(6-morpholin-4-yl-4-oxo-4H-pyran-2-yl)-9H-thioxanthen-2-yl]-acetamide]", "values": [
      {"measurement": "inhibition at 1 µM", "setting": "PI3K (p110β/p85α)", "result": 9, "unit": "%"},
      {"measurement": "inhibition at 1 µM", "setting": "PI3K (p120γ)", "result": 3, "unit": "%"},
      {"measurement": "inhibition at 1 µM", "setting": "PI3K (p110δ/p85α)", "result": 27, "unit": "%"},
      {"measurement": "mTOR inhibition", "setting": "mTOR", "result": "not inhibited"},
      {"measurement": "non-specific target effects against a panel of 229 protein kinases", "setting": "[3]", "result": "little to no non-specific target effects"},
      {"measurement": "inhibition of IR-induced p53 (S15) phosphorylation", "setting": "[4]; U87, 1 μM, 10 Gy", "result": "partial inhibited"},
      {"measurement": "p53 (S15) phosphorylation blocked", "setting": "[4]; U87, 1 μM, after IR", "result": "> 70", "unit": "%"},
      {"measurement": "inhibition of p53 phosphorylation", "setting": "[4]; U87, 3 μM, 10 Gy, 15 min post-IR", "result": "completely inhibited"},
      {"measurement": "inhibition of IR-induced p53 (S15) phosphorylation", "setting": "[4]; U87, 3 μM, 10 Gy", "result": "completely inhibited"},
      {"measurement": "γ-H2AX levels", "setting": "γ-H2AX (S139); U87, 3 μM, 15 min", "result": "reduced significantly"},
      {"measurement": "effect on H2AX phosphorylation", "setting": "γ-H2AX (S139); U87, 10 Gy, 1 h after irradiation", "result": "little to no effect"},
      {"measurement": "inhibition of radiation-induced CHK2 phosphorylation (T68)", "setting": "[5]", "result": "completely inhibited"},
      {"measurement": "inhibition of p53 phosphorylation", "setting": "p53 phosphorylation", "result": "completely inhibited"},
      {"measurement": "inhibition of γ-H2AX", "setting": "γ-H2AX", "result": "partially inhibited"},
      {"measurement": "radiosensitization", "setting": "U1242 cells [2]; U1242, 3 μM, 4 days post-IR, level between that of U87 cells treated with 1 and 10 μM", "result": "radiosensitized"},
      {"measurement": "radiosensitization", "setting": "[6]", "result": "radiosensitized"},
      {"measurement": "radiosensitization", "setting": "[7]", "result": "not radiosensitized"},
      {"measurement": "effect on radiation-induced increase in phospho-AKT (S473)", "setting": "[8]; U87, 3 μM, 5 Gy", "result": "almost completely blocked"},
      {"measurement": "earliest time of effect on S473 dephosphorylation after addition of drug", "setting": "[8]; U87, 3 μM, drug alone", "result": 5, "unit": "min"},
      {"measurement": "reduction in AKT phosphorylation", "setting": "[8]; U87, insulin-stimulated", "result": "~ 50%"},
      {"measurement": "reduction of basal AKT S473 phosphorylation", "setting": "[8]; pooled data from several independent experiments (Fig. S1A)", "result": 70, "unit": "%"},
      {"measurement": "effect on basal and radiation-induced AKT S473 phosphorylation", "setting": "[9]", "result": "almost completely abrogated"},
      {"measurement": "reduction of AKT phosphorylation", "setting": "[10]", "result": "~ 45%"},
      {"measurement": "effect on S473 phosphorylation", "setting": "[11]", "result": "did not affect"},
      {"measurement": "effect on phosphorylation of (S136) BAD", "setting": "[12]", "result": "reduced"},
      {"measurement": "effect on phosphorylation of (S9) GSK3β", "setting": "[13]", "result": "reduced"},
      {"measurement": "inhibition at 10 µM", "setting": "U87 cells [14]", "result": "≥ 70", "unit": "%"},
      {"measurement": "inhibition at 3 µM", "setting": "U87 cells [15]", "result": "~60", "unit": "%"},
      {"measurement": "inhibition at 3 µM", "setting": "U1242 cells [16]; Homo sapiens, read-out: inhibition of migration (scratch assay)", "result": "≥ 50", "unit": "%"},
      {"measurement": "rate of gap closure slower than untreated", "setting": "U1242 cells [16]; U1242, 3 μM, at 10 h", "result": 50, "unit": "%"},
      {"measurement": "inhibition at 3 µM", "setting": "U1242 cells [17]", "result": "~60", "unit": "%"},
      {"measurement": "suppression of growth", "setting": "U1242 cells [18]", "result": "~ 40%"}
    ]},
    {"smiles": "C=C1[C@@H](O)[C@@H]2O[C@]3(CC[C@H](/C=C/[C@@H](C)[C@@H]4CC(C)=C[C@@]5(O[C@H](C[C@@](C)(O)C(=O)O)CC[C@H]5O)O4)O3)CC[C@H]2O[C@@H]1[C@@H](O)C[C@H](C)[C@H]1O[C@@]2(CCCCO2)CC[C@H]1C", "note": "[OA, okadaic acid, reference compound]", "values": [
      {"measurement": "increase of AKT S473 phosphorylation compared to untreated control", "setting": "[8]; U87, OA by itself", "result": "> 2", "unit": "fold"},
      {"measurement": "reduction of the effect of KU-60019 on S473 phosphorylation", "setting": "[8]; U87, ≥30 nM OA with KU-60019 3 μM, 1 h", "result": "> 50", "unit": "%"}
    ]},
    {"smiles": "O=c1cc(-c2cccc3c2Sc2ccccc2S3)oc(N2CCOCC2)c1", "note": "[KU-55933, reference compound]", "values": [
      {"measurement": "inhibition of IR-induced p53 (S15) phosphorylation", "setting": "[4]; U87, 3 μM, 10 Gy", "result": "not at 3 μM"},
      {"measurement": "inhibition of IR-induced p53 (S15) phosphorylation", "setting": "[4]; U87, 10 μM, 10 Gy", "result": "completely inhibited"},
      {"measurement": "γ-H2AX levels", "setting": "γ-H2AX (S139); U87, 10 μM, 1 h after irradiation", "result": "only partly reduced"},
      {"measurement": "effect on radiation-induced AKT T308 phosphorylation", "setting": "AKT T308 phosphorylation", "result": "attenuated"},
      {"measurement": "effect on phosphorylation of (S136) BAD", "setting": "[12]", "result": "reduced"},
      {"measurement": "effect on phosphorylation of (S9) GSK3β", "setting": "[13]", "result": "reduced"},
      {"measurement": "specificity using a panel of 60 protein kinases", "setting": "[19]", "result": "highly specific for the ATM kinase"}
    ]}
  ]
}
